Assay results taken from ChEMBL document CHEMBL1144794, “Synthesis of 4'-modified noraristeromycins to clarify the effect of the 4'-hydroxyl groups for inhibitory activity against S-adenosyl-L-homocysteine hydrolase” (Bioorg Med Chem Lett, 2008).
Calls of active or inactive are those of the source. The calls are words filed in the database; no cut-off is given here.

Tests used:
Adenosylhomocysteinase [1] = molecular target: T1, Adenosylhomocysteinase (Homo sapiens, UniProt P23526); assay: Inhibition of human recombinant SAHH at 1000 uM
Target sequence in this assay (P23526 2-432 limits assumed): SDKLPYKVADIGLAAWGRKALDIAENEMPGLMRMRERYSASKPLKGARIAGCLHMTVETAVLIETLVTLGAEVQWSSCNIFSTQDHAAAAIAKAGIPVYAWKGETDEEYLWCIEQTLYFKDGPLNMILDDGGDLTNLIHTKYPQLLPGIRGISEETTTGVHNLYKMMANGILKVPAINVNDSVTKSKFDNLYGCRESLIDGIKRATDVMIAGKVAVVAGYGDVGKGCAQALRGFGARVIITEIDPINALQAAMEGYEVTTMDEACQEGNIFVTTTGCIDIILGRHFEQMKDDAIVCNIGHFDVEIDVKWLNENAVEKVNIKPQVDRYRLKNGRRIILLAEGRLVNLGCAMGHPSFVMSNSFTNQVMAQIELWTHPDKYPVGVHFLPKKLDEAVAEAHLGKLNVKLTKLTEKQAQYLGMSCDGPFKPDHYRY

Plasmodium falciparum = assay: (§1) Inhibition of Plasmodium falciparum recombinant SAHH at 1000 uM
Adenosylhomocysteinase [2] = molecular target: T1, Adenosylhomocysteinase; assay: Inhibition of human recombinant SAHH
Target sequence in this assay (P23526 whole entry): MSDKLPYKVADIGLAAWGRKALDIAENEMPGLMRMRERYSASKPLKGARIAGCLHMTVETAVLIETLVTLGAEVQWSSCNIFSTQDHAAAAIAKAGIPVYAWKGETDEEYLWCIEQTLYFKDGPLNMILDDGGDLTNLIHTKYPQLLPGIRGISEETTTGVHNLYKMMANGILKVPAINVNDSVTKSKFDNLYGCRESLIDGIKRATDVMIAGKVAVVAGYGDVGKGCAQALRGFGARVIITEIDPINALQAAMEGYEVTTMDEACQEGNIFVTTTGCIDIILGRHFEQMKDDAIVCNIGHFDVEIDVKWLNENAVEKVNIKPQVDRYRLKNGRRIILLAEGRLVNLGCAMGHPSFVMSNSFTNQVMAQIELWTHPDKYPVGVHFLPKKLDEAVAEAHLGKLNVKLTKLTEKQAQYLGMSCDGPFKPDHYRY

[3] = Inhibition of Plasmodium falciparum recombinant SAHH
[4] = as §1

Structure (SMILES)	Activity (Adenosylhomocysteinase [1])	Activity (Plasmodium falciparum)	IC50 (Adenosylhomocysteinase [2])	IC50 [3]	IC50 [4]
Nc1nc(N)c2ncn([C@@H]3C[C@H](OS(N)(=O)=O)[C@@H](O)[C@H]3O)c2n1	inactive	inactive			
Nc1ncnc2c1ncn2[C@@H]1C[C@@H](OS(N)(=O)=O)[C@@H](O)[C@H]1O	inactive	inactive			
Nc1ncnc2c1ncn2[C@@H]1C[C@@H](OS(=O)(=O)O)[C@@H](O)[C@H]1O	inactive	inactive			
Nc1ncnc2c1ncn2[C@@H]1C[C@H](OS(=O)(=O)O)[C@@H](O)[C@H]1O	inactive	inactive			
Nc1nc(N)c2ncn([C@@H]3C[C@H](OS(=O)(=O)O)[C@@H](O)[C@H]3O)c2n1	inactive	inactive			
Nc1ncnc2c1ncn2[C@@H]1C[C@@H](O)[C@@H](O)[C@H]1O			7.6 µM	79 µM	
Nc1ncnc2c1ncn2[C@@H]1C[C@@H](F)[C@@H](O)[C@H]1O	inactive	inactive			
Nc1ncnc2c1ncn2[C@@H]1CC[C@@H](O)[C@H]1O					9 µM
Nc1nc(N)c2ncn([C@@H]3C[C@@H](OS(N)(=O)=O)[C@@H](O)[C@H]3O)c2n1	inactive	inactive			
[N-]=[N+]=N[C@H]1C[C@@H](n2cnc3c(N)ncnc32)[C@H](O)[C@@H]1O			123 µM	117 µM	
Nc1nc(F)nc2c1ncn2[C@@H]1C[C@H](O)[C@@H](O)[C@H]1O			13 µM	63 µM	
Nc1ncnc2c1ncn2[C@@H]1C[C@H](N)[C@@H](O)[C@H]1O			76 µM	126 µM	
Nc1ncnc2c1ncn2[C@@H]1C[C@@H](N)[C@@H](O)[C@H]1O			> 500 µM	> 500 µM	
Nc1ncnc2c1ncn2[C@@H]1C[C@H](F)[C@@H](O)[C@H]1O	inactive			200 µM	
Nc1nc(N)c2ncn([C@@H]3C[C@@H](OS(=O)(=O)O)[C@@H](O)[C@H]3O)c2n1	inactive	inactive			
Nc1ncnc2c1ncn2[C@@H]1C[C@H](O)[C@@H](O)[C@H]1O [NORARISTEROMYCIN]			3.1 µM	1.1 µM	
[N-]=[N+]=N[C@@H]1C[C@@H](n2cnc3c(N)ncnc32)[C@H](O)[C@@H]1O			163 µM	90 µM	
Nc1ncnc2c1ncn2[C@@H]1C[C@H](OS(N)(=O)=O)[C@@H](O)[C@H]1O	inactive	inactive			
